{
  "source": "patent US20050106171A1",
  "about": "“METHODS AND COMPOSITIONS FOR TREATING EPILEPSY” (priority 2003, published 2005)",
  "key": {"[1]": {"system": "rats induced with cardiazol", "assay": "Anti-seizure effect of rats induced with cardiazol", "type": "in vivo, Wistar rats", "conditions": "day 7, cardiazol 70 mg/kg subcutaneous 30 minutes after last dose; dosed twice daily for 1 week; 20 rats per group", "excerpt": "Cardiazol induces seizure activity through intensifying excitatory synaptic activity of the brain. At the appropriate dose, cardiazol induces epileptic bursts that occur spontaneously.\nAn equal number of female and male Wistar rats that were […], weighing 200-220 g were provided by the Chinese Academy of Military Medical Sciences, Beijing, China. The rats were divided into four groups, each containing 20 rats: the test group (AY), the control yeast group (NY), the positive control group (CK2) and negative control group (CK1). Each rat in the test, control yeast and negative control groups was administered twice daily 0.6 ml of the activated yeast composition, the control yeast composition, and saline, respectively, for 1 week. Each mouse in the positive group was administered twice daily 0.04 g/kg (body weight) of phenobarbital (dissolved in 0.6 ml saline) for 1 week.\nOn day 7, 30 minutes after administering the last dosage of the above compositions, each group was administered by subcutaneous injection 70 mg/kg (body weight) of cardiazol (prepared as a 5% cardiazol solution in saline). The number of seizures occurred, incubation time (time between completion of injection and first seizure) and life span after injection was recorded immediately thereafter as shown in Table 3."}, "electroshocked mice": {"system": "electroshocked mice", "assay": "Anti-seizure effect on electroshocked mice", "type": "in vivo, Kunming mice", "conditions": "70 mice per group, dosed twice daily", "excerpt": "Electrodes are placed at the ears of the mice to provide instant stimulation through a strong electric currency. An appropriate electric currency induces an excessive surge of electrical activity in the brain resulting in seizures to occur.\nKunming grade healthy mice, which were 50-70 days old, weighing 18-22 g, were provided by the Institute of Zoology, Chinese Academy of Sciences, Beijing, China. The electroshock device (model GJ-2, manufactured by Medical Instrument Factory, Zhejiang Medical University) was adjusted to an output frequency of 60 Hz and voltage of 125 V. An equal number of male and female mice were selected. The ears of the mice were covered with saturated saline soaked-cotton. The electrodes were then clipped onto the ears of the mice. The mice were electroshocked three times for 0.3 seconds at an interval of 10 seconds. Mice with seizure activity were then divided into four groups, each group containing 70 mice: the test group (AY), the control yeast group (NY), the positive control group (CK2) and negative control group (CK1). Each mouse in the test, control yeast and negative control groups was administered twice daily 0.4 ml of the activated yeast composition, the control yeast composition, and saline, respectively, for 1 week. Each mouse in the positive control group was administered twice daily 15 mg/kg of phenobarbital for 1 week.\nOn each day, the mice were electroshocked once for 0.3 seconds. The number of mice with seizure activity were monitored as illustrated in Table 2."}},
  "data": [
    {"molecule": "CCC1(c2ccccc2)C(=O)NC(=O)NC1=O", "note": "[CK2, phenobarbital]", "values": [
      {"measurement": "incubation time (time between completion of injection and first seizure)", "setting": "[1]", "value": "7.23 ± 5.32", "unit": "min"},
      {"measurement": "life span after injection", "setting": "[1]", "value": "22.76 ± 17.37", "unit": "min"},
      {"measurement": "% mice anti-seizure", "setting": "electroshocked mice; Day 1", "value": 15.7, "unit": "%"},
      {"measurement": "No. mice with seizure activity", "setting": "electroshocked mice; Day 1, intragastric, electroshocked once for 0.3 seconds each day", "value": 59},
      {"measurement": "% mice anti-seizure", "setting": "electroshocked mice; Day 2", "value": 31.4, "unit": "%"},
      {"measurement": "No. mice with seizure activity", "setting": "electroshocked mice; Day 2", "value": 48},
      {"measurement": "% mice anti-seizure", "setting": "electroshocked mice; Day 3", "value": 20, "unit": "%"},
      {"measurement": "No. mice with seizure activity", "setting": "electroshocked mice; Day 3", "value": 56},
      {"measurement": "% mice anti-seizure", "setting": "electroshocked mice; Day 4", "value": 21.4, "unit": "%"},
      {"measurement": "No. mice with seizure activity", "setting": "electroshocked mice; Day 4", "value": 55},
      {"measurement": "% mice anti-seizure", "setting": "electroshocked mice; Day 5", "value": 17.1, "unit": "%"},
      {"measurement": "No. mice with seizure activity", "setting": "electroshocked mice; Day 5", "value": 58},
      {"measurement": "% mice anti-seizure", "setting": "electroshocked mice; Day 6", "value": 12.8, "unit": "%"},
      {"measurement": "No. mice with seizure activity", "setting": "electroshocked mice; Day 6", "value": 61},
      {"measurement": "% mice anti-seizure", "setting": "electroshocked mice; Day 7", "value": 12.9, "unit": "%"},
      {"measurement": "No. mice with seizure activity", "setting": "electroshocked mice; Day 7", "value": 61}
    ]}
  ]
}
